This is an account of results in ChEMBL document CHEMBL1146427, “Identification of the novel antimicrobial fatty acid (5Z,9Z)-14-methyl-5,9-pentadecadienoic acid in Eunicea succinea” (J Nat Prod, 1997).

Converted amounts (≈) assume the structure as drawn.

One experiment relates to Staphylococcus aureus. Description: Antibacterial activity against Staphylococcus aureus ATCC 25923 after overnight incubation. Type of experiment: functional, organism-based.
The subject of the next experiment is Pseudomonas aeruginosa. Nature of the experiment: Antibacterial activity against Pseudomonas aeruginosa ATCC 27853 after overnight incubation. The experiment is classed as functional.
In a further experiment the test system is Escherichia coli. Nature of the experiment: Antibacterial activity against Escherichia coli ATCC 25922 after overnight incubation. Type of experiment: functional.
The next experiment deals with Enterococcus faecalis. Description: Antibacterial activity against Streptococcus faecalis group D ATCC 29212 after overnight incubation. The experiment is classed as functional, organism-based.

Regarding `CC(C)CCC/C=C\CC/C=C\CCCC(=O)O`, the IC50 is 36 µg/mL (≈ 143 µM) in the experiment with Staphylococcus aureus and less than 10 µg/mL in the experiment on Enterococcus faecalis. Also, the minimum inhibitory concentration (MIC) in the experiment with Staphylococcus aureus was 240 µM (≈ 60.6 µg/mL); in the experiment with Pseudomonas aeruginosa it was greater than 100 µg/mL; in the experiment with Escherichia coli, greater than 100 µg/mL; against Enterococcus faecalis, 160 µM (≈ 40.4 µg/mL).
